# Legend:
# [1] = target: PERK enzyme (Homo sapiens (Human), UniProt Q9NZJ5); assay: Recombinant PERK activation assay; type: biochemical; conditions: FIG. 9B
# Method: (§1) To measure Compound 2-mediated PERK modulation, 200 nM PERK enzyme (Enzo, Farmingdale, NY) was incubated with Compound 2 titer for 30 min at RT. Following incubation, 200 nM substrate (GFP-eIF2α) (ThermoFisher Scientific, Waltham, MA) and 1 mM ATP was added to the mixture and incubated for 60 min at RT. Reaction was stopped by the addition of 10 mM EDTA and phosphorylated eiF2a substrate was detected using 2 nM LanthaScreen Tb-anti-peIF2α (pSer52) antibody (ThermoFisher Scientific, Waltham, MA) then incubated in the dark. After a 60 min incubation at room temperature, TR-FRET was monitored using an excitation wavelength of 340 nm and emission wavelengths of 490 nm and 520 nm.
# [2] = system: H929 Multiple Myeloma cells; assay: Cell proliferation, combination with standard of care, H929; type: cell-based; conditions: Homo sapiens, NCI-H929; with 3 nM bortezomib, 96 h, FIG. 6B; read-out: inhibition of cell proliferation IC50, combination treatment
# Method: (§2) H929, RPMI8226, GA-10 and DoHH-2 cells (catalog #CRL-9068) were obtained from the American Type Culture Collection (ATTC, Manassas, VA). H929 Cells were maintained in RPMI-1640 medium supplemented with 20% heat-inactivated fetal bovine serum (catalog #A3840002, ThermoFisher Scientific, Waltham, MA), 1% Penicillin/Streptomycin/L-Glutamine (catalog #10378016, ThermoFisher Scientific, Waltham, MA), and 0.05 mM 2-mercaptoethanol (catalog #21985-023, ThermoFisher Scientific, Waltham, MA). […]
# (§3) For cell proliferation assay appropriate number of cells (Forty thousand cells for H929. Twenty thousand cells for RPMI8226 and GA-10. Eight thousand cells for DoHH-2) were seeded per well in 200 μL in respective medium were dispensed into a 96-well black clear bottom plate. […] Plates were read on a Synergy2 or equivalent reader (Biotek, Winooski VT) using an excitation of 540 nm and an emission of 600 nm. At the end of the incubation of DoHH-2, cell viability was determined using CellTiter-Glo® assay (Promega, Madison, WI). Luminescence was measured using EnVision MultiLabel Reader (PerkinElmer, Waltham, MA). Data was analyzed using GraphPad Prism software (GraphPad, San Diego, CA) to calculate IC50 values.
# [3] = system: HT-1080 spheroids; assay: Spheroid Western blot assay, HT-1080; type: cell-based
# Method: NSCLC cell lines H358 (catalog #CRL-5807) and H2030 (catalog #CRL-5914), and fibrosarcoma cell line HT-1080 (catalog […]) were obtained from the American Type Culture Collect (ATTC, Manassas, VA). Cells were grown in RPMI-1640 medium supplemented with 10% heat-inactivated fetal bovine serum and 1% Penicillin/Streptomycin/L-Glutamine (Invitrogen, Carlsbad, CA) at 37° C., 5% CO2, and 95% humidity and maintained at 50-80% confluency until use. Cells were plated at 500,000 cells/well in 24-well Elplasia plates (Corning, Glendale, AZ) with complete growth media at 1 mL/well and incubated overnight at 37° C., 5% CO2, and 95% humidity to form spheroids. The next day, serial dilutions of test compounds were prepared in complete growth media and 500 μL existing media was removed from each well and replaced with fresh media containing compound titers. Spheroids were then incubated with test compounds for 4 hours or 24 hours under the same conditions. […] Western blots were performed to quantify phospho-GCN2 (R&D Systems, Minneapolis, MN), ATF4, CHOP, cleaved PARP, cleaved Caspase 3 and 7, and beta-Actin (Cell Signaling Technology, Danvers, MA). […]
# [4] = system: GA-10 Burkitt lymphoma cells; assay: Cell proliferation, combination with standard of care, GA-10; type: cell-based; conditions: Homo sapiens, with 50 nM dexamethasone, 96 h, FIG. 6C, read-out: inhibition of cell proliferation IC50, combination treatment
# Method: as §2, §3
# [5] = target: Recombinant GCN2 (EIF2AK4) (Homo sapiens (Human), UniProt Q9P2K8); assay: Recombinant GCN2 activation assay; type: biochemical; conditions: FIG. 9A
# Recombinant GCN2 (EIF2AK4), sequence (Q9P2K8 whole entry): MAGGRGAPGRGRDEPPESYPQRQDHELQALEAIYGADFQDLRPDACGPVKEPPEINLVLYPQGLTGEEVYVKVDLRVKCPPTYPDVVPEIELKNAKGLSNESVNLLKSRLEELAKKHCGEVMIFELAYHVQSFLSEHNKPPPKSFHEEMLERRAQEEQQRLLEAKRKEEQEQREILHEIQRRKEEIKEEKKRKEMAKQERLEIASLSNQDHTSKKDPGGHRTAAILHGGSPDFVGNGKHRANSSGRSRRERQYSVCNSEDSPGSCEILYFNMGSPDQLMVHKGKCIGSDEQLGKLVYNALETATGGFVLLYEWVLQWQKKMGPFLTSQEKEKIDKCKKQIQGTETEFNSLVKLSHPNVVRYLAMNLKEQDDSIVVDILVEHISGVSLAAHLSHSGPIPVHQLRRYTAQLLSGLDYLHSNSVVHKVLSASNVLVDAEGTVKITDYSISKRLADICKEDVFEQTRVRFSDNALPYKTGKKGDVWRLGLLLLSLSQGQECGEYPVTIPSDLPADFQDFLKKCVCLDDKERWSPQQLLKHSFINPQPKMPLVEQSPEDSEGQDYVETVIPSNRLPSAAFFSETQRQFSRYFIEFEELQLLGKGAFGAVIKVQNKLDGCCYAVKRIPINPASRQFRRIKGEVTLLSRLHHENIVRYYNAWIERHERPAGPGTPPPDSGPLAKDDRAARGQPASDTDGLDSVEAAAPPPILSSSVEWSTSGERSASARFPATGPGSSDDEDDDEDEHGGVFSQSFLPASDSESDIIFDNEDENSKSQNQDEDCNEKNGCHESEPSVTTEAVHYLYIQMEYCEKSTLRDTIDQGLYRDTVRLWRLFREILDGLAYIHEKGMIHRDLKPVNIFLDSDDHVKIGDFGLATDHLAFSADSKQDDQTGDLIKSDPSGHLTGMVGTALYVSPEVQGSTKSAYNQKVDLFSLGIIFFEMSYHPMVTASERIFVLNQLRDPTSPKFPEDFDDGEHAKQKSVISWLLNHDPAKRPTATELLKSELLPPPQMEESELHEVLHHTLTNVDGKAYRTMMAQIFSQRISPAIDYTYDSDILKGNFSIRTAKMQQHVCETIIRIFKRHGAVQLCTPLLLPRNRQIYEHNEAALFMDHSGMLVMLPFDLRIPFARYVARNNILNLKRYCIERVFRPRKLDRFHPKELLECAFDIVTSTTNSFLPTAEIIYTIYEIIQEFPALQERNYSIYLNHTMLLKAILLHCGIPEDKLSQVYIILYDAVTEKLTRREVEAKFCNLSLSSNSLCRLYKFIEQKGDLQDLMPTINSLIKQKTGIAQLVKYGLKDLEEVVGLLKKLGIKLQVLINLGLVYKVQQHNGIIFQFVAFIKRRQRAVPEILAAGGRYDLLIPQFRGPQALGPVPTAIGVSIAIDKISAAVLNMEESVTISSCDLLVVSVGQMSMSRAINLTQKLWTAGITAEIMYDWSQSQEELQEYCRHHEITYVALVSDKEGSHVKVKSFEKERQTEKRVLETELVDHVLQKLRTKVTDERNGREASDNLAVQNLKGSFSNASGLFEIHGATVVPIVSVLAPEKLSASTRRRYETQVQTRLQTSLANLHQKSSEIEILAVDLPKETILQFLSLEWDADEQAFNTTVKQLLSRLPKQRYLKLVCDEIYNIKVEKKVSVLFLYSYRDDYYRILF
# Method: as §1, with “Recombinant GCN2 (EIF2AK4) (Carna Biosciences, Japan) was dephosphorylated by incubating with 16,000 units of lambda phosphatase (New England Biolabs, Ipswich, MA) for 3 h at 30° C. in 1×phosphatase reaction buffer. To” for “To”, “2-mediated GCN2” for “2-mediated PERK”, “modulation, 12.5” for “modulation, 200”, “nM dephosphorylated GCN2 diluted in Kinase buffer (Invitrogen, Carlsbad, CA)” for “nM PERK enzyme (Enzo, Farmingdale, NY)”, “incubation, 130” for “incubation, 200”, “and 0.05” for “and 1”
# PERK enzyme, sequence (Q9NZJ5 30-1116): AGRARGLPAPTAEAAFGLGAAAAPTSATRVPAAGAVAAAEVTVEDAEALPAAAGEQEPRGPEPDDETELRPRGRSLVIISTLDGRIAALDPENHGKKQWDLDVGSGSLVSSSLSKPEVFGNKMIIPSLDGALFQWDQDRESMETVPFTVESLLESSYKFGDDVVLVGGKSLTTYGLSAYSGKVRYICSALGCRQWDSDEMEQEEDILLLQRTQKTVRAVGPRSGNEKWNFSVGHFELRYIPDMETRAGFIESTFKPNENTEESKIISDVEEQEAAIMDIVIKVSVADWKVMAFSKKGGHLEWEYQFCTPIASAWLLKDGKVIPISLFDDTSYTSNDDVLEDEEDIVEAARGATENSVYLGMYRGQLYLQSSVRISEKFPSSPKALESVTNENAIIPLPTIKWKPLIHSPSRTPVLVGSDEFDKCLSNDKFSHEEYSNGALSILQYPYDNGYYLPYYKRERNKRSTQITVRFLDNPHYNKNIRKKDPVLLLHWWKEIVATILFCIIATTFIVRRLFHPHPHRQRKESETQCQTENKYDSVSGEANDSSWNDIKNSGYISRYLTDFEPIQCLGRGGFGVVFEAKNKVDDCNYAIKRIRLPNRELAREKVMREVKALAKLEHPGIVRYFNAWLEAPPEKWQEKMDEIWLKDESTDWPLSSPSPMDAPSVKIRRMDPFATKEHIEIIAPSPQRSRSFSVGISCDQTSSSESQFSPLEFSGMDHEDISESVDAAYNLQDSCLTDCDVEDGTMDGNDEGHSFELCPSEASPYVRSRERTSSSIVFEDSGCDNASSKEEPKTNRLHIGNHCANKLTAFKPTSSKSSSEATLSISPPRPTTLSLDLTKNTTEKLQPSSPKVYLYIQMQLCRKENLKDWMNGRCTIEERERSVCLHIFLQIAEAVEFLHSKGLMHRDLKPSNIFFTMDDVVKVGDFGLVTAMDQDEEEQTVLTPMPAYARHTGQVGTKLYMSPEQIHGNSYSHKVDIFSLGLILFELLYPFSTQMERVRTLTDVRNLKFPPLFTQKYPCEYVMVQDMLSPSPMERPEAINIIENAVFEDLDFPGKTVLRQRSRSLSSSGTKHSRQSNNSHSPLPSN
compound,measurement,setting,value
"Cn1cc(-c2cccc(NS(=O)(=O)c3cc(Cl)cc(CO)c3Cl)c2F)c2c(N)ncnc21 [Example 2, N-(3-(4-amino-7-methyl-7H-pyrrolo[2,3-d]pyrimidin-5-yl)-2-fluorophenyl)-2,5-dichloro-3-(hydroxymethyl)benzenesulfonamide]",concentrations at which PERK enzyme is activated,[1],0.05 to 6 nM
same,concentrations at which recombinant PERK activity is inhibited,[1],above 3 μM
same,"activation of PERK enzyme, % of control",[1]; at 0.05-6 nM,up to 250 % of control
same,IC50,[2],6 nM
same,upregulation of ATF4 (Western blot quantification),[3],≤ 15 fold
same,IC50,[4],4 nM
same,concentrations at which GCN2 enzyme is activated,[5],0.05 to 3 nM
same,concentrations at which recombinant GCN2 activity is inhibited,[5],above 10 nM
same,"activation of GCN2 enzyme, % of control",[5]; at 0.05-3 nM,up to 250 % of control

# Reference: US20230382915A1, “GCN2 AND PERK KINASE INHIBITORS AND METHODS OF USE THEREOF” (Deciphera Pharmaceuticals, LLC, priority 2021, published 2023)
